Source: ChEMBL document CHEMBL4334526, “Synthesis of Peptoid-Based Class I-Selective Histone Deacetylase Inhibitors with Chemosensitizing Properties” (J Med Chem, 2019)
The source made the active and inactive calls. No cut-off for these calls is given here.

Columns and labels:
[1] = target: T1, Class 1 histone deacetylase (Homo sapiens, UniProt Q13547+O15379+Q92769+Q9BY41); assay: (§1) Inhibition of class 1 HDAC in human CAL27 cells assessed as potentiation of cisplatin-induced cytotoxicity by measuring combination index at 1 uM in presence of […] cisplatin by MTT assay based Chou-Talalay analysis; type: cell-based; conditions: CAL-27
[2] = target: T1, Class 1 histone deacetylase; assay: Inhibition of class 1 HDAC in human Cal27CisR cells assessed as potentiation of cisplatin-induced cytotoxicity by measuring combination index at 1 uM in presence of 32 uM cisplatin by MTT assay based Chou-Talalay analysis; type: cell-based
[3] = target: T1, Class 1 histone deacetylase; assay: Inhibition of class 1 HDAC in human Cal27CisR cells assessed as potentiation of cisplatin-induced cytotoxicity by measuring combination index at […] in presence of […] cisplatin by MTT assay based Chou-Talalay analysis; type: cell-based
[4] = target: T1, Class 1 histone deacetylase; assay: Inhibition of class 1 HDAC in human CAL27 cells assessed as potentiation of cisplatin-induced cytotoxicity by measuring combination index at 1 uM in presence of 0.10 uM cisplatin by MTT assay based Chou-Talalay analysis; type: cell-based; conditions: CAL-27
[5] = target: T1, Class 1 histone deacetylase; assay: Inhibition of class 1 HDAC in human Cal27CisR cells assessed as potentiation of cisplatin-induced cytotoxicity by measuring combination index at 1 uM in presence of 100 uM cisplatin by MTT assay based Chou-Talalay analysis; type: cell-based
[6] = target: T1, Class 1 histone deacetylase; assay: Inhibition of class 1 HDAC in human Cal27CisR cells assessed as potentiation of cisplatin-induced cytotoxicity by measuring combination index at 1 uM in presence of 1 uM cisplatin by MTT assay based Chou-Talalay analysis; type: cell-based
[7] = target: T1, Class 1 histone deacetylase; assay: Inhibition of class 1 HDAC in human CAL27 cells assessed as potentiation of cisplatin-induced cytotoxicity by measuring combination index at […] in presence of 0.1 uM cisplatin by MTT assay based Chou-Talalay analysis; type: cell-based; conditions: CAL-27
[8] = target: T1, Class 1 histone deacetylase; assay: Inhibition of class 1 HDAC in human CAL27 cells assessed as potentiation of cisplatin-induced cytotoxicity by measuring combination index at 1 uM in presence of 10 uM cisplatin by MTT assay based Chou-Talalay analysis; type: cell-based; conditions: CAL-27
[9] = target: T1, Class 1 histone deacetylase; assay: Inhibition of class 1 HDAC in human Cal27CisR cells assessed as potentiation of cisplatin-induced cytotoxicity by measuring fold reduction in cisplatin IC50 at 5 uM preincubated for 48 hrs followed by cisplatin addition and measured after 72 hrs by MTT assay relative to cisplatin IC50; type: cell-based
[10] = target: T1, Class 1 histone deacetylase; assay: Inhibition of class 1 HDAC in human Cal27CisR cells assessed as potentiation of cisplatin-induced cytotoxicity by measuring combination index at […] in presence of 100 uM cisplatin by MTT assay based Chou-Talalay analysis; type: cell-based
[11] = target: T1, Class 1 histone deacetylase; assay: Inhibition of class 1 HDAC in human Cal27CisR cells assessed as potentiation of cisplatin-induced cytotoxicity by measuring combination index at […] in presence of 32 uM cisplatin by MTT assay based Chou-Talalay analysis; type: cell-based
[12] = target: T1, Class 1 histone deacetylase; assay: (§2) Inhibition of class 1 HDAC in human CAL27 cells assessed as potentiation of cisplatin-induced cytotoxicity by measuring combination index at […] in presence of […] cisplatin by MTT assay based Chou-Talalay analysis; type: cell-based; conditions: CAL-27
[13] = target: T1, Class 1 histone deacetylase; assay: Inhibition of class 1 HDAC in human Cal27CisR cells assessed as potentiation of cisplatin-induced cytotoxicity by measuring combination index at […] in presence of 1 uM cisplatin by MTT assay based Chou-Talalay analysis; type: cell-based
Histone deacetylase 2 = Histone deacetylase 2 (Homo sapiens, UniProt Q92769); assay: Inhibition of recombinant human full length C-terminal FLAG-tagged HDAC2 expressed in baculovirus infected Sf9 insect cells using Boc-Lys(epsilon-acetyl)-AMC as substrate incubated for 90 mins by fluorescence assay; type: cell-based
[14] = target: Histone deacetylase 3/Nuclear receptor corepressor 2 (HDAC3/NCoR2) (Homo sapiens) (UniProt O15379+Q9Y618); assay: Inhibition of human recombinant full length C-terminal His-tagged HDAC3 (1 to 428 residues)/N-terminal GST-tagged NCOR2 (395 to 489 residues) expressed in baculovirus infected Sf9 insect cells at 10 uM using Boc-Lys(epsilon-acetyl)-AMC as substrate incubated for 90 mins by fluorescence assay relative to control
[15] = target: T1, Class 1 histone deacetylase; assay: as §1; type: cell-based; conditions: CAL-27; remark: listed apart in the source
A2780 = assay: Cytotoxicity against human A2780 cells assessed as reduction in cell survival measured after 72 hrs by MTT assay; type: functional, cell-based; conditions: A2780, 72 h
[16] = target: T1, Class 1 histone deacetylase; assay: as §2; type: cell-based; conditions: CAL-27; remark: listed apart in the source
[17] = target: T1, Class 1 histone deacetylase; assay: Inhibition of class 1 HDAC in human Cal27CisR cells assessed as potentiation of cisplatin-induced cytotoxicity by measuring combination index at 1 uM in presence of 10 uM cisplatin by MTT assay based Chou-Talalay analysis; type: cell-based
[18] = target: T1, Class 1 histone deacetylase; assay: Inhibition of class 1 HDAC in human CAL27 cells assessed as potentiation of cisplatin-induced cytotoxicity by measuring combination index at […] in presence of 10 uM cisplatin by MTT assay based Chou-Talalay analysis; type: cell-based; conditions: CAL-27
CAL-27 = assay: Induction of apoptosis in human CAL27 cells assessed as accumulation at sub-G1 phase at 5 uM after 48 hrs by propidium iodide staining based flow cytometry; type: functional, cell-based
[19] = target: T1, Class 1 histone deacetylase
Description: Inhibition of class 1 HDAC in human Cal27CisR cells assessed as potentiation of cisplatin-induced cytotoxicity by measuring combination index at 0.5 uM in presence of 1 uM cisplatin by MTT assay based Chou-Talalay analysis

[20] = target: T1, Class 1 histone deacetylase; conditions: CAL-27
Description: Inhibition of class 1 HDAC in human CAL27 cells assessed as potentiation of cisplatin-induced cytotoxicity by measuring combination index at 0.5 uM in presence of 0.1 uM cisplatin by MTT assay based Chou-Talalay analysis

[21] = target: T1, Class 1 histone deacetylase; conditions: CAL-27; remark: listed apart in the source
Description: Inhibition of class 1 HDAC in human CAL27 cells assessed as potentiation of cisplatin-induced cytotoxicity by measuring combination index at 0.5 uM in presence of 0.32 uM cisplatin by MTT assay based Chou-Talalay analysis

[22] = target: T1, Class 1 histone deacetylase; remark: listed apart in the source
Description: Inhibition of class 1 HDAC in human Cal27CisR cells assessed as potentiation of cisplatin-induced cytotoxicity by measuring combination index at 0.25 uM in presence of 1 uM cisplatin by MTT assay based Chou-Talalay analysis

[23] = target: T1, Class 1 histone deacetylase; remark: listed apart in the source
Description: Inhibition of class 1 HDAC in human Cal27CisR cells assessed as potentiation of cisplatin-induced cytotoxicity by measuring combination index at 0.25 uM in presence of 100 uM cisplatin by MTT assay based Chou-Talalay analysis

[24] = target: T1, Class 1 histone deacetylase; remark: listed apart in the source
Description: Inhibition of class 1 HDAC in human Cal27CisR cells assessed as potentiation of cisplatin-induced cytotoxicity by measuring combination index at 0.5 uM in presence of 10 uM cisplatin by MTT assay based Chou-Talalay analysis

[25] = target: T1, Class 1 histone deacetylase; conditions: CAL-27; remark: listed apart in the source
Description: Inhibition of class 1 HDAC in human CAL27 cells assessed as potentiation of cisplatin-induced cytotoxicity by measuring combination index at 0.25 uM in presence of 0.32 uM cisplatin by MTT assay based Chou-Talalay analysis

[26] = target: T1, Class 1 histone deacetylase; conditions: CAL-27; remark: listed apart in the source
Description: Inhibition of class 1 HDAC in human CAL27 cells assessed as potentiation of cisplatin-induced cytotoxicity by measuring combination index at 0.5 uM in presence of 10 uM cisplatin by MTT assay based Chou-Talalay analysis

[27] = target: T1, Class 1 histone deacetylase; remark: listed apart in the source
Description: Inhibition of class 1 HDAC in human Cal27CisR cells assessed as potentiation of cisplatin-induced cytotoxicity by measuring combination index at 0.5 uM in presence of 100 uM cisplatin by MTT assay based Chou-Talalay analysis

[28] = target: T1, Class 1 histone deacetylase; conditions: CAL-27; remark: listed apart in the source
Description: Inhibition of class 1 HDAC in human CAL27 cells assessed as potentiation of cisplatin-induced cytotoxicity by measuring combination index at 0.5 uM in presence of 3.2 uM cisplatin by MTT assay based Chou-Talalay analysis

[29] = target: T1, Class 1 histone deacetylase; assay: Inhibition of class 1 HDAC in human CAL27 cells assessed as potentiation of cisplatin-induced apoptosis by measuring increase in accumulation at sub-G1 phase at […] preincubated for 48 hrs followed by cisplatin addition and measured after 24 hrs by propidium iodide staining based flow cytometry; type: cell-based; conditions: CAL-27

T1 sequence (O15379 whole entry, looked up): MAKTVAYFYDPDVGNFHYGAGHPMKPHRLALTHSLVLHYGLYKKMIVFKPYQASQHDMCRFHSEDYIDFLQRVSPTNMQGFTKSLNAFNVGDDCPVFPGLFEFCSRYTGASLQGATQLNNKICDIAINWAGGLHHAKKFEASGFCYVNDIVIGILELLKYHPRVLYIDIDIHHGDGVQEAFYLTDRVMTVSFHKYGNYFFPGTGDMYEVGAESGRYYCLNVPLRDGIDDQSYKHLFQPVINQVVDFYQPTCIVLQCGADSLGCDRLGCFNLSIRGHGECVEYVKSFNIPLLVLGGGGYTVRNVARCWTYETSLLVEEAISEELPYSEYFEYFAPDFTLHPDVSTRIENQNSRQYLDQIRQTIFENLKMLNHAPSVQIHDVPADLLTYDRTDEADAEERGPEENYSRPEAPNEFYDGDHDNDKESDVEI
T1 sequence (Q13547 whole entry, looked up): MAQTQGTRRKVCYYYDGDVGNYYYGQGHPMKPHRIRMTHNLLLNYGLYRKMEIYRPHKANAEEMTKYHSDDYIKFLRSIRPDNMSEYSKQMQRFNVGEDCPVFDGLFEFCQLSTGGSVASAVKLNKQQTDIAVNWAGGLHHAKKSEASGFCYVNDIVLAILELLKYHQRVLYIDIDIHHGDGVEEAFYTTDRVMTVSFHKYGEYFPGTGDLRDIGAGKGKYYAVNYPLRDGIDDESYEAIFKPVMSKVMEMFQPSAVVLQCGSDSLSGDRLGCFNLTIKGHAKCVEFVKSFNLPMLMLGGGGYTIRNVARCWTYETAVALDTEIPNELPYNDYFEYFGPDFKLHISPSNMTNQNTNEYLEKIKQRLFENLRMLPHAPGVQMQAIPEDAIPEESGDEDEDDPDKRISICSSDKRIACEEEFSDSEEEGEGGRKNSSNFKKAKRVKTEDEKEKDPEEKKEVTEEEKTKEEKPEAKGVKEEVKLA
T1 sequence (Q92769 whole entry, looked up): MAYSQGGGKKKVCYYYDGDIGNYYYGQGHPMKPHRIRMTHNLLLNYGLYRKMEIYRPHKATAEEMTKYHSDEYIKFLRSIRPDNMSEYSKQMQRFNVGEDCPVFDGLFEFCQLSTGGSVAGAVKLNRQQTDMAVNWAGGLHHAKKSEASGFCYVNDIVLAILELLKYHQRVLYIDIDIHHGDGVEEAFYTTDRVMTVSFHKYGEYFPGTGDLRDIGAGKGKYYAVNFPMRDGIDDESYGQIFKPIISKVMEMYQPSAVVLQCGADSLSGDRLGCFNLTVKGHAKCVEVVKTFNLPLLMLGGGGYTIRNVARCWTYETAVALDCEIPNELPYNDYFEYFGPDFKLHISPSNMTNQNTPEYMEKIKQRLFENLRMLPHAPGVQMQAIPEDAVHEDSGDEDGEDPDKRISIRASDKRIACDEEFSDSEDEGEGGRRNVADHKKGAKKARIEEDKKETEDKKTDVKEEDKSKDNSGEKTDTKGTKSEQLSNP
T1 sequence (Q9BY41 whole entry, looked up): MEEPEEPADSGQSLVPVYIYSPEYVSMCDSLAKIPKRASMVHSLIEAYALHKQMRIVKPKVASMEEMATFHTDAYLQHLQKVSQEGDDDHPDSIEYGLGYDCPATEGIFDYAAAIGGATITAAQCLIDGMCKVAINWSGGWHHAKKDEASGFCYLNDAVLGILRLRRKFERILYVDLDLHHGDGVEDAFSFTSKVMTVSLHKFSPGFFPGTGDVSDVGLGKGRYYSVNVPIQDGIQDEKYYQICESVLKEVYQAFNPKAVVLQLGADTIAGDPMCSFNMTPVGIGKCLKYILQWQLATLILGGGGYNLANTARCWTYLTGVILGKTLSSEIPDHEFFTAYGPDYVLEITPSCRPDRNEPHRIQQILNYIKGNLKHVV
Histone deacetylase 2, sequence (Q92769 whole entry, the tested form may be a part): as the sequence (Q92769 whole entry, looked up) above

Row | Structure (SMILES) | CI [1] | CI [2] | CI [3] | CI [4] | CI [5] | CI [6] | CI [7] | CI [8] | CI [10] | CI [11] | CI [12] | CI [13] | IC50 (Histone deacetylase 2) | inhibition [14] | CI [15] | IC50 (A2780) | CI [16] | CI [17] | CI [18] | CI [19] | further results
1 | Cc1cc(C)cc(C(=O)N(CCCCCC(=O)Nc2cc(-c3ccccc3)ccc2N)CC(=O)NCc2ccccc2)c1 | < 0.2 | < 0.2 | < 0.2 | < 0.2 | 0.06 | < 0.2 | < 0.2 | 0.53 | 0.09 | 0.74 | 0.25 | < 0.2 | 1810 nM | 20% | < 0.2 | 17100 nM | < 0.2 | < 0.2 | 0.12 | – | Ratio IC50 [9]: 4.03; Activity (CAL-27): inactive
2 | CN(C)c1ccc(C(=O)N(CC(=O)NCc2ccccc2)Cc2ccc(C(=O)Nc3ccccc3N)cc2)cc1 | – | – | – | – | – | – | – | – | – | – | – | – | 283 nM | – | – | 2400 nM | – | – | – | 0.33 | CI [20]: 0.4; CI [21]: 0.32; CI [22]: 0.76; CI [23]: 0.03; CI [24]: 0.12; CI [25]: 0.39; CI [26]: 0.07; CI [27]: 0.07; CI [28]: 0.07
3 | Cc1cc(C)cc(C(=O)N(CC(=O)NCc2ccccc2)Cc2ccc(C(=O)Nc3cc(-c4ccccc4)ccc3N)cc2)c1 | 0.52 | 0.27 | 0.89 | 0.42 | 0.08 | < 0.2 | 0.39 | 0.16 | 0.19 | 0.18 | 0.14 | < 0.2 | – | < 15% | 0.2 | – | 0.34 | 0.5 | 0.08 | 0.77 | CI [20]: 0.5; CI [21]: 0.7; CI [24]: 0.76; inhibition [29]: Active; CI [26]: 0.18; CI [27]: 0.1; CI [28]: 0.21
